In patent US20060014723A1, “Anti-parasitic uses of borinic acid complexes” (priority 2004, published 2006):
In brackets after ≈: the same amount, converted by molar mass.

Assays:
P. falciparum K1 = assay: Malaria in vitro screening model (3H-hypoxanthine incorporation); type: cell-based, Plasmodium falciparum; conditions: for IC50: Plasmodium falciparum, K1
Method: […] P. falciparum K1 is used in this study. K1 (a clone originating from Thailand) is resistant to chloroquine and pyrimethamine. The strains are maintained in RPMI 1640 medium with 0.36 mM hypoxanthine, supplemented with 25 mM N 2-hydroxyethyipiperazine-N-2-ethane-sulphonic acid (HEPES), 25 mM NaHCO3, neomycin (100 U/mL) and 5 g/L of ALBUMAX® II (lipid-rich bovine serum albumin, GIBCO, Grand Island, N.Y., USA), together with 5% washed human A+ erythrocytes. All cultures and assays are conducted at 37° C. under an atmosphere of 4% CO2, 3% O2 and 93% N2. Cultures are kept in incubation chambers filled with the gas mixture. Subcultures are diluted to a parasitemia of between 0.1 and 0.5% and the medium is changed daily.
Antimalarial activity is assessed using an adaptation of the procedures described by Desjardins et al. (Antimicrob. Agents Chemother. 16:710-718, 1979), and Matile and Pink (In: Lefkovits, I. and Pernis, B. (Eds.), Immunological Methods Vol. IV, Academic Press, San Diego, pp. 221-234, 1990).
Stock drug solutions are prepared in 100% dimethylsulfoxide (DMSO) at 10 mg/mL, and heated or sonicated if necessary to dissolve the sample. After use, the stocks are kept at −20° C. For the assays, the compound is further diluted in serum-free culture medium and finally to the appropriate concentration in complete medium without hypoxanthine.
Assays are performed in sterile 96-well microtiter plates, each well containing 200 μl of parasite culture (0.15% parasitemia, 2.5% hematocrit) with or without serial drug solutions. Seven 2-fold dilutions are used, covering a range from […] to 0.078 μg/mL. For active compounds the highest concentration is lowered (e.g., to […]); for plant extracts the highest concentration is increased to 50 μg/mL. […] After 48 hours of incubation at 37° C., 0.5 μCi ^3H-hypoxanthine is added to each well. Cultures are incubated for a further 24 h before being harvested onto glass-fiber filters and washed with distilled water. The radioactivity is counted using a Betaplate liquid scintillation counter (Wallac, Zurich, Switzerland). The results are recorded as counts per minute per well at each drug concentration and expressed as percentage of the untreated controls. IC50 values are calculated from the sigmoidal inhibition curves using Microsoft EXCEL.

[1] = test system: Leishmania donovani strain MHOM/ET1671L82; assay: Leishmaniasis in vitro screening model (axenic amastigotes, Alamar Blue); type: cell-based; conditions: for IC50: Leishmania donovani, read-out: L. donovani IC50
Method: The Leishmania donovani strain MHOM/ET1671L82 (obtained from Dr. S. Croft, London School of Hygiene and Tropical Medicine) is used. The strain is maintained in the Syrian Golden hamster. Amastigotes are collected from the spleen of an infected hamster. Amastigotes are grown in axenic culture at 37° C. in SM medium (Cunningham I., J. Protozoal. 24:325-329, 1977) at pH 5.4 supplemented with 10% heat-inactivated fetal bovine serum (FBS) under an atmosphere of 5% CO2 in air.
(§1) After use the stocks are kept at −20° C. For the assays, the compound is further diluted to the appropriate concentration using complete medium.
Assays are performed in 96-well flat-bottom microtiter plates (Costar, Corning Inc.), each well containing 100 μl of culture medium with 105 amastigotes from axenic culture with or without a serial drug dilution. Concentration of amastigotes is determined in a CASY cell analyzing system (Scharfe System, Reutlingen, Germany). Before the amastigotes are counted, the parasite culture is passed twice through a 22-gauge needle to break up clusters of amastigotes.
The highest concentration for the test compounds is 90 μg/mL. Seven 3-fold dilutions are used, covering a range from […]. Each drug is tested in duplicate. Active compounds are tested twice for confirmation. After 72 hours of incubation, the plates are inspected under an inverted microscope to assure growth of the controls and sterile conditions.
(§2) Ten μL of Alamar Blue (12.5 mg resazurin dissolved in 100 mL distilled water) are then added to each well and the plates are incubated for another 2 hours. Then the plates are read with a Spectramax GEMINI XS microplate fluorometer (Molecular Devices Cooperation, Sunnyvale, Calif., USA) using an excitation wave length of 536 nm and an emission wave length of 588 nm.
Data are analyzed using the microplate reader software Softmax Pro (Molecular Devices Cooperation, Sunnyvale, Calif., USA). Decrease of fluorescence (i.e. inhibition) is expressed as percentage of the fluorescence of control cultures and plotted against the drug concentrations. The IC50 value is calculated from the sigmoidal inhibition curve by the software program.

[2] = test system: T. b. rhodesiense STIB 900; assay: African sleeping sickness in vitro screening model (Alamar Blue); type: cell-based, Trypanosoma brucei rhodesiense; conditions: for IC50: Trypanosoma brucei
Method: Bloodstream from trypomastigotes of the strains (a) and (c) are maintained in Minimal Essential Medium (MEM) with Earle's salts supplemented according to Baltz, et al., (EMBO J. 4:1273-1277, 1985) with 25 mM N-2-hydroxyethylpiperazine-N′-2-ethane-sulphonic acid (HEPES), 1 g/L additional glucose, 1% MEM non-essential amino acids (100×), 0.2 mM 2-mercaptoethanol, 2 mM sodium pyruvate, 0.1 mM hypoxanthine and 15% heat-inactivated horse serum.
All cultures and assays are conducted at 37° C. under an atmosphere of 5% CO2 in air.
After use the stocks are kept at −20° C. For the assays, the compound is further diluted in serum-free culture medium and finally to the appropriate concentration in complete medium without hypoxanthine.
Assays are performed in 96-well microtiter plates, each well containing 100 μL of culture medium with 8×10^3 bloodstream forms with or without a serial drug dilution. The highest concentration for the test compounds is 90 μg/mL. Seven 3-fold drug dilutions are used, covering a range from 90 μg/mL to 0.123 μg/mL. Each drug is tested in duplicate. Active compounds are tested twice for confirmation. The final result is the mean of the four individual IC50 values. After 72 hrs of incubation, the plates are inspected under an inverted microscope to assure growth of the controls and sterile conditions.
as §2, with “are now” for “are then”, “excitation wavelength” for “excitation wave length”
IC50 values are determined using the microplate reader software Softmax Pro (Molecular Devices Cooperation, Sunnyvale, Calif., USA).

[3] = test system: Trypanosoma cruzi Tulahuen C2C4 strain; assay: Chagas disease in vitro screening model (beta-galactosidase strain in L-6 cells); type: cell-based; conditions: for IC50: Trypanosoma cruzi, TULAHUEN, L6, read-out: T. cruzi IC50
Method: Trypanosoma cruzi Tulahuen C2C4 strain, containing the β-galactosidase (Lac Z) gene (Buckner et al., Antimicrob. Agents Chemother 40:2592-2597, 1996) is used for this study.
The infective amastigote and trypomastigote stages are cultivated in L-6 cells (a rat skeletal myoblast cell line) in RPMI 1640 medium supplemented with 2 mM L-glutamine and 10% heat-inactivated fetal bovine serum in 12.5 cm^2 tissue culture flasks. Amastigotes develop intracellularly, differentiate into trypomastigotes, and leave the host cell. These trypomastigotes infect new L-6 cells and are the stages used to initiate an infection in the assay. All cultures and assays are conducted at 37° C. under an atmosphere of 5% CO2 in air.
as §1
Assays are performed in sterile 96-well microtiter plates, each well containing 100 μl medium with 2×10^3 L-6 cells. After 24 hours, […] of a trypanosome suspension containing 5×10^3 trypomastigote bloodstream forms from culture are added to the wells. Forty-eight hours later, the medium is removed from the wells and replaced by […] fresh medium, with or without a serial drug dilution. At this point the L-6 cells should be infected with amastigotes and no free trypomastigotes should be in the medium. Seven 3-fold drug dilutions are used, covering a range from 90 μg/mL to 0.123 μg/mL. Each drug is tested in duplicate. Active compounds are tested twice for confirmation. After 96 hours of incubation the plates are inspected under an inverted microscope to assure growth of the controls and sterility.
Then the substrate CPRG/Nonidet (50 μl) is added to all wells. A colour reaction will become visible within 2-6 hours and can be read photometrically at 540 nm. Data are transferred into a graphics program (e.g., EXCEL), sigmoidal inhibition curves determined and IC50 values calculated.

Row | SMILES | P. falciparum IC50 (P. falciparum K1) [µg/mL] | L. donovani IC50 [1] [µg/mL] | T. b. rhodesiense IC50 [2] [µg/mL] | T. cruzi IC50 [3] [µg/mL] | IC50 (P. falciparum K1) [µg/mL] | IC50 [1] [µg/mL] | IC50 [2] [µg/mL] | IC50 [3] [µg/mL]
1 | Nc1cccc(C(=O)OB(c2ccc(Cl)cc2)c2ccc(Cl)cc2)n1 [Compound 131] | 0.6855 | 0.24 | 7.6 | 0.0535 |  |  |  | 
2 | Nc1cccc(C(=O)OB(c2ccc(Cl)cc2)c2ccc(Cl)cc2)n1 [Compound 50] | 0.6115 | 0.23 | 9.45 | 0.135 |  |  |  | 
3 | C=CB(Oc1cccc2cccnc12)c1cccc(C2=NC(C)(C)CO2)c1 [Compound 93] | 3.034 | 0.55 | 0.32 | 3.65 |  |  |  | 
4 | N#Cc1ccc(B(Oc2cccc3cccnc23)c2ccc(F)cc2F)cc1 [Compound 98] | 3.245 | 0.59 | 0.345 | 4.05 |  |  |  | 
5 | N#Cc1cccc(B(Oc2cccc3cccnc23)c2ccccc2F)c1 [Compound 33, (3-Cyanophenyl)(2-fluorophenyl)borinic acid quinolin-8-yl ester] |  |  |  |  | 1.79 (≈ 5.08 µM) | 0.61 (≈ 1.73 µM) | 0.3 (≈ 0.852 µM) | 1.39 (≈ 3.95 µM)
6 | O=C(OB(c1cccc(Cl)c1)c1cccc(Cl)c1)c1ncccc1OCCN1CCOCC1 [Compound 77] | 1.225 | 1.1 | 17.2 | 5.15 |  |  |  | 
7 | Fc1cccc(B(Oc2cccc3cccnc23)c2ccc(Cl)cc2F)c1 [Compound 43, (4-Chloro-2-fluorophenyl)(3-fluorophenyl)borinic acid quinolin-8-yl ester] |  |  |  |  | 1.83 (≈ 4.82 µM) | 0.02 (≈ 0.0527 µM) | 0.4 (≈ 1.05 µM) | 0.825 (≈ 2.17 µM)
8 | Fc1cc(F)cc(B(Oc2cccc3cccnc23)c2ccc(Cl)cc2)c1 [Compound 44, (4-Chlorophenyl)(3,5-difluorophenyl)borinic acid quinolin-8-yl ester] |  |  |  |  | 1.87 (≈ 4.93 µM) | 0.5 (≈ 1.32 µM) | 0.275 (≈ 0.724 µM) | 0.71 (≈ 1.87 µM)
9 | N#Cc1ccc(B(Oc2cccc3cccnc23)c2cc(F)ccc2F)cc1 [Compound 35, (4-Cyanophenyl)(2,5-difluorophenyl)borinic acid quinolin-8-yl ester] |  |  |  |  | 1.74 (≈ 4.7 µM) | 0.38 (≈ 1.03 µM) | 0.275 (≈ 0.743 µM) | 0.705 (≈ 1.9 µM)
10 | CC1(C)COC(c2cccc(B(Oc3cccc4cccnc34)C3CC3)c2)=N1 [Compound 20, Cyclopropyl[3-(4,5-dihydro-4,4-dimethyloxazol-2yl)phenyl]borinic acid quinolin-8-yl ester] |  |  |  |  | 1.84 (≈ 4.97 µM) | 0.55 (≈ 1.49 µM) | 0.245 (≈ 0.662 µM) | 0.86 (≈ 2.32 µM)
11 | Fc1ccc(B(Oc2cccc3cccnc23)c2ccc(F)c(Cl)c2)cc1Cl [Compound 12, Bis(3-chloro-4-fluoro-phenyl)borinic acid quinolin-8-yl ester] |  |  |  |  | 1.5 (≈ 3.62 µM) | 0.68 (≈ 1.64 µM) | 0.52 (≈ 1.26 µM) | 5.6 (≈ 13.5 µM)
12 | C=CB(Oc1c(Cl)cc(Cl)c2ccc(C)nc12)c1cccnc1 [Compound 82] | 2.647 | 0.22 | 1.19 | 1.95 |  |  |  | 
13 | N#Cc1ccc(B(Oc2cccc3cccnc23)c2cc(F)cc(C(F)(F)F)c2)cc1 [Compound 122] | 4.577 | 0.45 | 0.4 | 4.55 |  |  |  | 
14 | Fc1cc(B(Oc2cccc3cccnc23)c2ccc(Cl)c(F)c2)ccc1Cl [Compound 89] | 1.385 | 0.38 | 0.41 | 1.36 |  |  |  | 
15 | Fc1cccc(B(Oc2cccc3cccnc23)c2ccc(Cl)cc2)c1F [Compound 42, (4-Chlorophenyl)(2,3-difluorophenyl)borinic acid quinolin-8-yl ester] |  |  |  |  | 1.83 (≈ 4.82 µM) | 0.43 (≈ 1.13 µM) | 0.47 (≈ 1.24 µM) | 1.04 (≈ 2.75 µM)
16 | CN(C)Cc1ccc(B(Oc2cccc3cccnc23)c2cccc(C3=NC(C)(C)CO3)c2)cc1 [Compound 126] | 4.746 | 0.45 | 0.595 | 5.05 |  |  |  | 
17 | O=C(OB(c1cccnc1)c1cccc(Cl)c1)c1ncccc1O [Compound 70] | >5 | 18.3 | 38.3 | 28.2 |  |  |  | 
